Results published in publication PMC6440935, “Characterization and phase I study of CLR457, an orally bioavailable pan-class I PI3-kinase inhibitor” (Investigational New Drugs, 2018).
Where two headings read alike, the source gives them in different places.

[1] = drug-related, All Patients, N = 31
[2] = drug-related, all patients N = 31
[3] = suspected related, all patients

Description: The primary objective was to define the maximum tolerated dose (MTD). Secondary objectives included assessments for safety, tolerability, pharmacokinetic (PK) profile, and preliminary antitumor activity.
Patients had histologically documented locally advanced or metastatic solid tumors harboring an activating PIK3CA mutation or amplification, PTEN loss of function, c-MET activation, [16, 17] […] Other key inclusion criteria included age ≥ 18 years, Eastern Cooperative Oncology Group performance status (ECOG-PS) ≤2, adequate organ function, measurable or non-measurable disease as determined by Response Evaluation Criteria in Solid Tumors (RECIST) version 1.1.
The starting dose for CLR457 was 5 mg QD, based on preclinical toxicology studies in accordance with ICH guidelines, and was administered at the same time each day ±2 h in a fasted state. Various doses were planned up to 300 mg QD until MTD determination.
Safety was evaluated by incidence, nature, severity, and relatedness of adverse events (AEs), and graded according to National Cancer Institute - Common Terminology Criteria for Adverse Events (NCI CTCAE) v4.0.3. DLTs were defined as any hematologic or non-hematologic ≥ Grade 3 AE assessed as possibly related to CLR457 that occurred within the first cycle (28 days) of treatment. In addition, uncontrolled (> 14 days) Grade 2 rash or hyperglycemia were also considered DLTs. All AEs regardless of attribution were collected until 30 days following the last administration of treatment or study discontinuation/termination.
Descriptive methods were used to tabulate toxicity and response endpoints in the clinical trial. All patients treated with CLR457 were included for safety. […] Dose escalation was guided by an adaptive Bayesian logistic regression model (BLRM) incorporating the escalation with overdose control (EWOC) principle. […] The study data (including DLTs during cycle 1 and other safety and PK data) were reviewed by the sponsor and trial investigators at each dose level. […] The Full Analysis Set (FAS) included all patients who received at least one dose of CLR457. Safety set included all patients who received at least one dose of CLR457 and had at least one valid post-baseline assessment. The Dose-determining set (DDS) included all patients from the safety set who either met the following minimum exposure criterion and had sufficient safety evaluations, or experienced a DLT during Cycle 1 (the first 28 days of dosing). The Pharmacokinetic analysis set included all patients who had at least one blood sample providing evaluable PK data.

## C[C@H]1OC(=O)N(c2cc(-c3cnc(N)nc3C(F)(F)F)nc(N3CCOCC3)n2)[C@H]1CO [CLR457]
drug-related, 100 mg, N = 11
  Dehydration, All Grade: 1 (9.1) n (%)
  Dehydration, Grade ≥ 3: 0 n (%)
  Diarrhea, All Grade: 5 (45.5) n (%)
  Diarrhea, Grade ≥ 3: 1 (9.1) n (%)
  Dry mouth, All Grade: 1 (9.1) n (%)
  Dry mouth, Grade ≥ 3: 0 n (%)
  Dry skin, All Grade: 1 (9.1) n (%)
  Dry skin, Grade ≥ 3: 0 n (%)
  Dysgeusia, All Grade: 3 (27.3) n (%)
  Dysgeusia, Grade ≥ 3: 0 n (%)
  Fatigue, All Grade: 4 (36.4) n (%)
  Fatigue, Grade ≥ 3: 1 (9.1) n (%)
  Headache, All Grade: 1 (9.1) n (%)
  Headache, Grade ≥ 3: 0 n (%)
  Hyperglycemia, All Grade: 4 (36.4) n (%)
  Hyperglycemia, Grade ≥ 3: 1 (9.1) n (%)
  Hypomagnesaemia, All Grade: 1 (9.1) n (%)
  Hypomagnesaemia, Grade ≥ 3: 0 n (%)
  Maculo-papular rash, All Grade: 7 (63.6) n (%)
  Maculo-papular rash, Grade ≥ 3: 5 (45.5) n (%)
  Nausea, All Grade: 4 (36.4) n (%)
  Nausea, Grade ≥ 3: 0 n (%)
  Pneumonitis, All Grade: 2 (18.2) n (%)
  Pneumonitis, Grade ≥ 3: 2 (18.2) n (%)
  Pruritus, All Grade: 3 (27.3) n (%)
  Pruritus, Grade ≥ 3: 0 n (%)
  Pyrexia, All Grade: 3 (27.3) n (%)
  Pyrexia, Grade ≥ 3: 0 n (%)
  Rash, All Grade: 3 (27.3) n (%)
  Rash, Grade ≥ 3: 1 (9.1) n (%)
  Stomatitis, All Grade: 9 (81.8) n (%)
  Stomatitis, Grade ≥ 3: 0 n (%)
  Vomiting, All Grade: 2 (18.2) n (%)
  Vomiting, Grade ≥ 3: 0 n (%)
  Weight decreased, All Grade: 0 n (%)
  Weight decreased, Grade ≥ 3: 0 n (%)
[1]
  Asthenia, All Grade: 3 (9.7) n (%)
  Asthenia, Grade ≥ 3: 0 n (%)
  Chills, All Grade: 2 (6.5) n (%)
  Chills, Grade ≥ 3: 0 n (%)
  Colitis, All Grade: 2 (6.5) n (%)
  Colitis, Grade ≥ 3: 2 (6.5) n (%)
  Cough, All Grade: 2 (6.5) n (%)
  Cough, Grade ≥ 3: 0 n (%)
  Decreased appetite, All Grade: 7 (22.6) n (%)
  Decreased appetite, Grade ≥ 3: 0 n (%)
  Decreased neutrophil count, All Grade: 2 (6.5) n (%)
  Decreased neutrophil count, Grade ≥ 3: 1 (3.2) n (%)
  Dehydration, All Grade: 2 (6.5) n (%)
  Dehydration, Grade ≥ 3: 1 (3.2) n (%)
  Diarrhea, All Grade: 12 (38.7) n (%)
  Diarrhea, Grade ≥ 3: 2 (6.5) n (%)
  Dry mouth, All Grade: 2 (6.5) n (%)
  Dry mouth, Grade ≥ 3: 0 n (%)
  Dry skin, All Grade: 2 (6.5) n (%)
  Dry skin, Grade ≥ 3: 0 n (%)
  Dysgeusia, All Grade: 4 (12.9) n (%)
  Dysgeusia, Grade ≥ 3: 0 n (%)
  Fatigue, All Grade: 9 (29.0) n (%)
  Fatigue, Grade ≥ 3: 1 (3.2) n (%)
  Headache, All Grade: 2 (6.5) n (%)
  Headache, Grade ≥ 3: 0 n (%)
  Hyperglycemia, All Grade: 7 (22.6) n (%)
  Hyperglycemia, Grade ≥ 3: 1 (3.2) n (%)
  Hypomagnesaemia, All Grade: 2 (6.5) n (%)
  Hypomagnesaemia, Grade ≥ 3: 0 n (%)
  Maculo-papular rash, All Grade: 11 (35.5) n (%)
  Maculo-papular rash, Grade ≥ 3: 8 (25.8) n (%)
  Nausea, All Grade: 9 (29.0) n (%)
  Nausea, Grade ≥ 3: 0 n (%)
  Pneumonitis, All Grade: 2 (6.5) n (%)
  Pneumonitis, Grade ≥ 3: 2 (6.5) n (%)
  Pruritus, All Grade: 5 (16.1) n (%)
  Pruritus, Grade ≥ 3: 0 n (%)
  Pyrexia, All Grade: 4 (12.9) n (%)
  Pyrexia, Grade ≥ 3: 0 n (%)
  Rash, All Grade: 6 (19.4) n (%)
  Rash, Grade ≥ 3: 2 (6.5) n (%)
  Stomatitis, All Grade: 14 (45.2) n (%)
  Stomatitis, Grade ≥ 3: 0 n (%)
  Vomiting, All Grade: 5 (16.1) n (%)
  Vomiting, Grade ≥ 3: 0 n (%)
  Weight decreased, All Grade: 2 (6.5) n (%)
  Weight decreased, Grade ≥ 3: 0 n (%)
[2]
  Decreased appetite, any grade: 22.6%
  Diarrhea, any grade: 38.7%
  Fatigue, any grade: 29%
  Hyperglycemia, any grade: 22.6%
  Maculo-papular rash, any grade: 35.5%
  Nausea, any grade: 29%
  Stomatitis, any grade: 45.2%
In vivo
  Drug-related AEs leading to discontinuation of study treatment: 16.1%
  SAEs suspected to be related to the study treatment: 22.6%
Of 31 patients treated, 5-100 mg QD
  Patients with DLTs: 4 patients
[3]
  SAE colitis: 6.5%
  SAE diarrhea: 6.5%
  SAE pneumonitis: 6.5%
